Test results: patent publication US7067508B2, “Diaminedithiol derivatives and radiorhenium or radiotechnetium complex thereof; a liver cancer-treating composition comprising the radiorhenium complex and lipiodol; and a kit for preparation of the liver cancer-treating composition” (Seoul National University Industry Foundation, priority 2001, dated 2006)

Assay: Biodistribution of 188Re-labelled compounds in lipiodol solution in mice after tail vein injection
Type: in vivo
Details: mice (ICR)
Procedure: To the ^188Re-labelled reaction mixture prepared in the foregoing Examples 4 to 6, lipiodol (5 ml) was added, mixed well and the solution was centrifuged at 3000 rpm for 10 min. The supernatant was removed and 2 ml saline was added. After mixing well, the resulting solution was centrifuged again at 3000 rpm for 10 min and the supernatant was removed to recover a lower phase of lipiodol.
Mice (ICR) were administered with an injection of ^188Re-labelled compound in lipiodol solution which was prepared in the Example 7 via the tail vein. Radioactivity distributed in tissues and weight of each tissue were measured to calculate the percentage of radioactivity per gram of unit tissue relative to total radioactivity administered.
As radiation accumulation mechanism in the lung and the liver cancer are similar, it is convenient to detect the level of radiation accumulating in the lung of a mouse suffering from liver cancer. […] Therefore, it can be inferred that a radiorhenium complex of a diaminedithiol derivative having a long side chain is effective for treating liver cancer.

CCCCCCCCCCCC[N+]12CC[N]3CC(C)(C)[S][188Re-]31(=[O])[S]C(C)(C)C2 (stereo not shown) [^188Re-DTDD]
Biodistribution, radioactivity in Blood (10 min post-injection): 13.0 ± 0.6 percentage of radioactivity per gram
Biodistribution, radioactivity in Fat (10 min post-injection): 5.5 ± 0.4 percentage of radioactivity per gram
Biodistribution, radioactivity in Heart (10 min post-injection): 9.1 ± 2.3 percentage of radioactivity per gram
Biodistribution, radioactivity in Kidney (10 min post-injection): 9.9 ± 0.7 percentage of radioactivity per gram
Biodistribution, radioactivity in Liver (10 min post-injection): 14.9 ± 0.7 percentage of radioactivity per gram
Biodistribution, radioactivity in Lung (10 min post-injection): 137.4 ± 13.1 percentage of radioactivity per gram
Biodistribution, radioactivity in Muscle (10 min post-injection): 2.4 ± 0.1 percentage of radioactivity per gram
Biodistribution, radioactivity in Small intestine (10 min post-injection): 4.8 ± 0.3 percentage of radioactivity per gram
Biodistribution, radioactivity in Spleen (10 min post-injection): 5.6 ± 0.3 percentage of radioactivity per gram
Biodistribution, radioactivity in Stomach (10 min post-injection): 18.3 ± 4.4 percentage of radioactivity per gram
Biodistribution, radioactivity in Blood (30 min post-injection): 9.5 ± 1.1 percentage of radioactivity per gram
Biodistribution, radioactivity in Fat (30 min post-injection): 4.4 ± 0.8 percentage of radioactivity per gram
Biodistribution, radioactivity in Heart (30 min post-injection): 5.0 ± 0.9 percentage of radioactivity per gram
Biodistribution, radioactivity in Kidney (30 min post-injection): 7.4 ± 0.5 percentage of radioactivity per gram
Biodistribution, radioactivity in Liver (30 min post-injection): 14.6 ± 2.2 percentage of radioactivity per gram
Biodistribution, radioactivity in Lung (30 min post-injection): 85.1 ± 7.1 percentage of radioactivity per gram
Biodistribution, radioactivity in Muscle (30 min post-injection): 2.0 ± 0.2 percentage of radioactivity per gram
Biodistribution, radioactivity in Small intestine (30 min post-injection): 8.3 ± 0.7 percentage of radioactivity per gram
Biodistribution, radioactivity in Spleen (30 min post-injection): 4.8 ± 0.4 percentage of radioactivity per gram
Biodistribution, radioactivity in Stomach (30 min post-injection): 36.0 ± 5.9 percentage of radioactivity per gram
Biodistribution, radioactivity in Blood (1 hr post-injection): 7.0 ± 0.8 percentage of radioactivity per gram
Biodistribution, radioactivity in Fat (1 hr post-injection): 4.1 ± 0.6 percentage of radioactivity per gram
Biodistribution, radioactivity in Heart (1 hr post-injection): 5.5 ± 0.4 percentage of radioactivity per gram
Biodistribution, radioactivity in Kidney (1 hr post-injection): 6.2 ± 0.7 percentage of radioactivity per gram
Biodistribution, radioactivity in Liver (1 hr post-injection): 13.2 ± 2.8 percentage of radioactivity per gram
Biodistribution, radioactivity in Lung (1 hr post-injection): 82.2 ± 15.1 percentage of radioactivity per gram
Biodistribution, radioactivity in Muscle (1 hr post-injection): 1.5 ± 0.3 percentage of radioactivity per gram
Biodistribution, radioactivity in Small intestine (1 hr post-injection): 9.7 ± 1.2 percentage of radioactivity per gram
Biodistribution, radioactivity in Spleen (1 hr post-injection): 3.5 ± 0.5 percentage of radioactivity per gram
Biodistribution, radioactivity in Stomach (1 hr post-injection): 49.2 ± 7.0 percentage of radioactivity per gram
Biodistribution, radioactivity in Blood (3 hr post-injection): 5.1 ± 1.2 percentage of radioactivity per gram
Biodistribution, radioactivity in Fat (3 hr post-injection): 2.4 ± 0.4 percentage of radioactivity per gram
Biodistribution, radioactivity in Heart (3 hr post-injection): 2.7 ± 0.7 percentage of radioactivity per gram
Biodistribution, radioactivity in Kidney (3 hr post-injection): 5.2 ± 0.7 percentage of radioactivity per gram
Biodistribution, radioactivity in Liver (3 hr post-injection): 7.7 ± 0.6 percentage of radioactivity per gram
Biodistribution, radioactivity in Lung (3 hr post-injection): 61.9 ± 10.3 percentage of radioactivity per gram
Biodistribution, radioactivity in Muscle (3 hr post-injection): 1.0 ± 0.2 percentage of radioactivity per gram
Biodistribution, radioactivity in Small intestine (3 hr post-injection): 11.6 ± 0.3 percentage of radioactivity per gram
Biodistribution, radioactivity in Spleen (3 hr post-injection): 2.9 ± 0.6 percentage of radioactivity per gram
Biodistribution, radioactivity in Stomach (3 hr post-injection): 37.7 ± 12.3 percentage of radioactivity per gram
Biodistribution, radioactivity in Blood (24 hr post-injection): 0.6 ± 0.2 percentage of radioactivity per gram
Biodistribution, radioactivity in Fat (24 hr post-injection): 0.6 ± 0.2 percentage of radioactivity per gram
Biodistribution, radioactivity in Heart (24 hr post-injection): 1.5 ± 0.3 percentage of radioactivity per gram
Biodistribution, radioactivity in Kidney (24 hr post-injection): 1.9 ± 0.3 percentage of radioactivity per gram
Biodistribution, radioactivity in Liver (24 hr post-injection): 3.3 ± 1.1 percentage of radioactivity per gram
Biodistribution, radioactivity in Lung (24 hr post-injection): 47.2 ± 9.2 percentage of radioactivity per gram
Biodistribution, radioactivity in Muscle (24 hr post-injection): 0.3 ± 0.0 percentage of radioactivity per gram
Biodistribution, radioactivity in Small intestine (24 hr post-injection): 9.2 ± 6.9 percentage of radioactivity per gram
Biodistribution, radioactivity in Spleen (24 hr post-injection): 3.3 ± 1.0 percentage of radioactivity per gram
Biodistribution, radioactivity in Stomach (24 hr post-injection): 5.4 ± 1.6 percentage of radioactivity per gram

CCCCCCCCCCCCCCCC[N+]12CC[N]3CC(C)(C)[S][188Re-]31(=[O])[S]C(C)(C)C2 (stereo not shown) [^188Re-HTDD]
Biodistribution, radioactivity in Blood (10 min post-injection): 8.1 ± 1.5 percentage of radioactivity per gram
Biodistribution, radioactivity in Fat (10 min post-injection): 3.9 ± 1.5 percentage of radioactivity per gram
Biodistribution, radioactivity in Heart (10 min post-injection): 9.4 ± 3.0 percentage of radioactivity per gram
Biodistribution, radioactivity in Kidney (10 min post-injection): 7.0 ± 1.8 percentage of radioactivity per gram
Biodistribution, radioactivity in Liver (10 min post-injection): 11.6 ± 1.7 percentage of radioactivity per gram
Biodistribution, radioactivity in Lung (10 min post-injection): 211.3 ± 30.0 percentage of radioactivity per gram
Biodistribution, radioactivity in Muscle (10 min post-injection): 1.9 ± 0.3 percentage of radioactivity per gram
Biodistribution, radioactivity in Small intestine (10 min post-injection): 3.4 ± 0.5 percentage of radioactivity per gram
Biodistribution, radioactivity in Spleen (10 min post-injection): 3.6 ± 0.8 percentage of radioactivity per gram
Biodistribution, radioactivity in Stomach (10 min post-injection): 7.4 ± 1.6 percentage of radioactivity per gram
Biodistribution, radioactivity in Blood (30 min post-injection): 9.1 ± 5.3 percentage of radioactivity per gram
Biodistribution, radioactivity in Fat (30 min post-injection): 2.8 ± 0.5 percentage of radioactivity per gram
Biodistribution, radioactivity in Heart (30 min post-injection): 6.0 ± 1.1 percentage of radioactivity per gram
Biodistribution, radioactivity in Kidney (30 min post-injection): 6.5 ± 0.9 percentage of radioactivity per gram
Biodistribution, radioactivity in Liver (30 min post-injection): 15.9 ± 1.6 percentage of radioactivity per gram
Biodistribution, radioactivity in Lung (30 min post-injection): 185.6 ± 20.9 percentage of radioactivity per gram
Biodistribution, radioactivity in Muscle (30 min post-injection): 1.5 ± 0.2 percentage of radioactivity per gram
Biodistribution, radioactivity in Small intestine (30 min post-injection): 6.5 ± 0.6 percentage of radioactivity per gram
Biodistribution, radioactivity in Spleen (30 min post-injection): 3.1 ± 0.2 percentage of radioactivity per gram
Biodistribution, radioactivity in Stomach (30 min post-injection): 15.1 ± 2.9 percentage of radioactivity per gram
Biodistribution, radioactivity in Blood (1 hr post-injection): 4.2 ± 0.5 percentage of radioactivity per gram
Biodistribution, radioactivity in Fat (1 hr post-injection): 2.7 ± 0.6 percentage of radioactivity per gram
Biodistribution, radioactivity in Heart (1 hr post-injection): 4.7 ± 0.9 percentage of radioactivity per gram
Biodistribution, radioactivity in Kidney (1 hr post-injection): 6.1 ± 1.4 percentage of radioactivity per gram
Biodistribution, radioactivity in Liver (1 hr post-injection): 14.4 ± 2.5 percentage of radioactivity per gram
Biodistribution, radioactivity in Lung (1 hr post-injection): 177.8 ± 18.4 percentage of radioactivity per gram
Biodistribution, radioactivity in Muscle (1 hr post-injection): 1.1 ± 0.2 percentage of radioactivity per gram
Biodistribution, radioactivity in Small intestine (1 hr post-injection): 9.3 ± 1.0 percentage of radioactivity per gram
Biodistribution, radioactivity in Spleen (1 hr post-injection): 3.0 ± 0.8 percentage of radioactivity per gram
Biodistribution, radioactivity in Stomach (1 hr post-injection): 21.0 ± 1.7 percentage of radioactivity per gram
Biodistribution, radioactivity in Blood (3 hr post-injection): 2.8 ± 0.5 percentage of radioactivity per gram
Biodistribution, radioactivity in Fat (3 hr post-injection): 2.0 ± 0.6 percentage of radioactivity per gram
Biodistribution, radioactivity in Heart (3 hr post-injection): 4.5 ± 0.8 percentage of radioactivity per gram
Biodistribution, radioactivity in Kidney (3 hr post-injection): 6.2 ± 1.2 percentage of radioactivity per gram
Biodistribution, radioactivity in Liver (3 hr post-injection): 9.0 ± 1.8 percentage of radioactivity per gram
Biodistribution, radioactivity in Lung (3 hr post-injection): 157.3 ± 28.6 percentage of radioactivity per gram
Biodistribution, radioactivity in Muscle (3 hr post-injection): 0.8 ± 0.2 percentage of radioactivity per gram
Biodistribution, radioactivity in Small intestine (3 hr post-injection): 12.2 ± 1.3 percentage of radioactivity per gram
Biodistribution, radioactivity in Spleen (3 hr post-injection): 2.7 ± 0.1 percentage of radioactivity per gram
Biodistribution, radioactivity in Stomach (3 hr post-injection): 19.3 ± 4.0 percentage of radioactivity per gram
Biodistribution, radioactivity in Blood (24 hr post-injection): 0.6 ± 0.1 percentage of radioactivity per gram
Biodistribution, radioactivity in Fat (24 hr post-injection): 0.8 ± 0.3 percentage of radioactivity per gram
Biodistribution, radioactivity in Heart (24 hr post-injection): 2.2 ± 0.8 percentage of radioactivity per gram
Biodistribution, radioactivity in Kidney (24 hr post-injection): 3.3 ± 0.7 percentage of radioactivity per gram
Biodistribution, radioactivity in Liver (24 hr post-injection): 5.6 ± 1.0 percentage of radioactivity per gram
Biodistribution, radioactivity in Lung (24 hr post-injection): 118.0 ± 19.5 percentage of radioactivity per gram
Biodistribution, radioactivity in Muscle (24 hr post-injection): 0.4 ± 0.1 percentage of radioactivity per gram
Biodistribution, radioactivity in Small intestine (24 hr post-injection): 6.2 ± 3.4 percentage of radioactivity per gram
Biodistribution, radioactivity in Spleen (24 hr post-injection): 9.3 ± 5.2 percentage of radioactivity per gram
Biodistribution, radioactivity in Stomach (24 hr post-injection): 5.5 ± 1.7 percentage of radioactivity per gram
